Tested on: fertilized eggs of the C57BL/6J lineage
Assay: In vitro culture of natural mating-derived fertilized eggs in M16 medium supplemented with ALA; embryo development
Type: cell-based, mouse
Settings: 37° C.
Source text: The female mice used to harvest fertilized eggs were female mice of the C57BL/6J lineage (21 weeks old to 27 weeks old, body weight: 21.0 to 24.5 g). The male mice used for mating were male mice of the C57BL/6J lineage (32 to 38 weeks old, body weight: 30.0 to 35.5 g). According to a routine method of controlled ovarian hyperstimulation, 5 U (units) of equine chorionic gonadotropin (serum gonadotrophin) (manufactured by ASKA Pharmaceutical Co., Ltd.) were intraperitoneally administered to each female mouse. 45 to 48 hours later, 5 U (units) of gonadotropin (human chorionic gonadotropin) (manufactured by ASKA Pharmaceutical Co., Ltd.) were intraperitoneally administered to each female mouse. Immediately after the administration of gonadotropin, each female mouse was mated with each male mouse described above.
On the next day, the presence or absence of a milky resin-like vaginal plug was determined for the mated female mice, and the oviducts were harvested from the female mice confirmed to have the vaginal plug. The harvested oviducts were left standing in physiological saline (0.9% (w/v) NaCl) for approximately 15 minutes and then transferred into M16 medium supplemented with approximately 300 μg/mL of hyaluronidase (manufactured by Sigma-Aldrich Corp.) for cumulus cell removal treatment. The oviducts were incised, and fertilized eggs were isolated and left standing at 37° C. for 5 to 10 minutes in a CO2 incubator. Then, the fertilized eggs separated from the cumulus cells were recovered and washed with hyaluronidase-unsupplemented M16 medium to remove hyaluronidase. The resulting cumulus cell-free fertilized eggs were left standing at 37° C. in a CO2 incubator.
Aside therefrom, a drop of 100 μL of M16 medium covered with mineral oil (manufactured by Sigma-Aldrich Corp.) and supplemented with ALA hydrochloride (manufactured by SBI Pharmaceuticals Co., Ltd.) at a final concentration of 0 μM (control), 0.1 μM, 0.5 μM, or 1 μM was prepared in a 35 mm Petri dish and left standing at 37° C. in a CO2 incubator. 29 or 30 of the cumulus cell-free fertilized eggs were transferred to the resulting drop and cultured in vitro at 37° C. in a CO2 incubator.
After a lapse of 24 hours, 48 hours, 72 hours, and 96 hours from the start of the in vitro culture (0 hours) in the drop, the developmental stage of each embryo was determined by observation under a stereoscopic microscope, and the number of embryos whose development progressed normally and change in development rate were calculated. Specifically, the number of 2-cell eggs 24 hours after the start of the culture, the number of 3-cell, 4-cell, and 8-cell eggs 48 hours thereafter, the number of morulae and blastocysts 72 hours thereafter, and the number of blastocysts 96 hours thereafter were counted as embryos whose development progressed normally at each stage. The development rate with the number of fertilized eggs (0 hours) defined as 100% is shown in Table 3 and the graph of FIG. 1. For the evaluation of the development rate, the percentage of the number of embryos whose development progressed normally 24 hours, 48 hours, 72 hours, and 96 hours after the start of the culture was calculated with the number of fertilized eggs (0 hours) defined as 100%, and used as a normal development rate. Because of the natural mating, the number of recovered fertilized eggs (0 hours) includes unfertilized eggs to some extent, and there is the possibility that the content of unfertilized eggs varies accidentally among fertilized eggs (0 hours) populations distributed to the respective condition groups even if the fertilized eggs (0 hours) populations have been recovered in the same experiment. The development rate calculated with the number of 2-cell embryos 24 hours postfertilization defined as 100% was calculated in order to eliminate the influence of the content of unfertilized eggs that varies accidentally among the respective condition groups. […]

Structure (SMILES): NCC(=O)CCC(=O)O [ALA, 5-aminolevulinic acid]
- The number of developed embryos (0.1 μM ALA, 24 hr): 22
- development rate with the number of fertilized eggs (0 hr) defined as 100% (0.1 μM ALA, 24 hr): 73%
- The number of developed embryos (0.1 μM ALA, 48 hr): 19
- development rate with the number of 2-cell embryos 24 hours postfertilization defined as 100% (0.1 μM ALA, 48 hr): 86%
- development rate with the number of fertilized eggs (0 hr) defined as 100% (0.1 μM ALA, 48 hr): 63%
- The number of developed embryos (0.1 μM ALA, 72 hr): 14
- development rate with the number of 2-cell embryos 24 hours postfertilization defined as 100% (0.1 μM ALA, 72 hr): 64%
- The number of developed embryos (0.1 μM ALA, 96 hr): 7
- The number of developed embryos (0.5 μM ALA, 24 hr): 24
- development rate with the number of fertilized eggs (0 hr) defined as 100% (0.5 μM ALA, 24 hr): 83%
- The number of developed embryos (0.5 μM ALA, 48 hr): 21
- development rate with the number of 2-cell embryos 24 hours postfertilization defined as 100% (0.5 μM ALA, 48 hr): 88%
- development rate with the number of fertilized eggs (0 hr) defined as 100% (0.5 μM ALA, 48 hr): 72%
- The number of developed embryos (0.5 μM ALA, 72 hr): 14
- development rate with the number of 2-cell embryos 24 hours postfertilization defined as 100% (0.5 μM ALA, 72 hr): 58%
- The number of developed embryos (0.5 μM ALA, 96 hr): 13
- The number of developed embryos (1 μM ALA, 24 hr): 19
- development rate with the number of fertilized eggs (0 hr) defined as 100% (1 μM ALA, 24 hr): 66%
- The number of developed embryos (1 μM ALA, 48 hr): 19
- development rate with the number of 2-cell embryos 24 hours postfertilization defined as 100% (1 μM ALA, 48 hr): 100%
- development rate with the number of fertilized eggs (0 hr) defined as 100% (1 μM ALA, 48 hr): 66%
- The number of developed embryos (1 μM ALA, 72 hr): 15
- The number of developed embryos (1 μM ALA, 96 hr): 13

From US9962350B2, “Agent for improving normal development rate of fertilized eggs” (SBI Pharmaceuticals Co., Ltd., priority 2014, dated 2018)
